Assay results reported in ChEMBL document CHEMBL1687756 (Antimicrob Agents Chemother, 2010).

Legend:
[1] = Drug level in Beagle dog lymph node iliac at 5 mg/kg administered intramuscularly after 6 months; format: ADME, organism-based, Canis lupus familiaris; parameters: dose 5 mg/kg, route intramuscular; conditions: im, read-out: Drug uptake
[2] = Ratio of drug level in lymph node iliac to plasma in Beagle dog at 5 mg/kg, sc after 1 month; format: ADME, organism-based, Canis lupus familiaris; parameters: dose 5 mg/kg, route subcutaneous
[3] = Ratio of drug level in spleen to plasma in Beagle dog at 5 mg/kg, sc after 6 months; format: ADME, organism-based, Canis lupus familiaris; parameters: dose 5 mg/kg, route subcutaneous
[4] = Drug level in male Beagle dog spleen at 400 mg/kg administered intramuscularly after 3 months; format: ADME, organism-based, Canis lupus familiaris; parameters: dose 400 mg/kg, route intramuscular; conditions: im, read-out: Drug uptake
[5] = Ratio of drug level in lymph node popliteal to plasma in Beagle dog at 5 mg/kg, sc after 3 months; format: ADME, organism-based, Canis lupus familiaris; parameters: dose 5 mg/kg, route subcutaneous
[6] = Drug level in female Beagle dog spleen at 200 mg/kg, sc after 3 months; format: ADME, organism-based, Canis lupus familiaris; parameters: dose 200 mg/kg, route subcutaneous; conditions: read-out: Drug uptake
[7] = Ratio of drug level in lymph node iliac to plasma in Beagle dog at 5 mg/kg, sc after 6 months; format: ADME, organism-based, Canis lupus familiaris; parameters: dose 5 mg/kg, route subcutaneous
[8] = Drug level in Beagle dog lymph node popliteal at 5 mg/kg, sc after 3 months; format: ADME, organism-based, Canis lupus familiaris; parameters: dose 5 mg/kg, route subcutaneous; conditions: read-out: Drug uptake
[9] = Plasma concentration in female Beagle dog at 400 mg/kg, sc after 3 months; format: ADME, organism-based, Canis lupus familiaris; parameters: dose 400 mg/kg, route subcutaneous
Canis familiaris [10] = test: Toxicity in Beagle dog assessed as white deposits at 20 mg/kg, sc after 3 months; format: organism-based, Canis lupus familiaris; parameters: dose 20 mg/kg, route subcutaneous; conditions: in vivo, 2191.5 h
Canis familiaris [11] = test: Toxicity in Beagle dog assessed as white deposits at 20 mg/kg administered intramuscularly after 3 months; format: organism-based, Canis lupus familiaris; parameters: dose 20 mg/kg, route intramuscular; conditions: in vivo, im, 2191.5 h
[12] = Drug level in Beagle dog lymph node iliac at 5 mg/kg, sc after 1 month; format: ADME, organism-based, Canis lupus familiaris; parameters: dose 5 mg/kg, route subcutaneous; conditions: read-out: Drug uptake
[13] = Drug level in female Beagle dog spleen at 400 mg/kg administered intramuscularly after 1 month; format: ADME, organism-based, Canis lupus familiaris; parameters: dose 400 mg/kg, route intramuscular; conditions: im, read-out: Drug uptake
[14] = Drug level in female Beagle dog thymus at 200 mg/kg, sc after 3 months; format: ADME, organism-based, Canis lupus familiaris; parameters: dose 200 mg/kg, route subcutaneous; conditions: read-out: Drug uptake
[15] = Drug level in male Beagle dog spleen at 400 mg/kg administered intramuscularly after 1 month; format: ADME, organism-based, Canis lupus familiaris; parameters: dose 400 mg/kg, route intramuscular; conditions: im, read-out: Drug uptake
[16] = Plasma concentration in female Beagle dog at 400 mg/kg, sc after 1 month; format: ADME, organism-based, Canis lupus familiaris; parameters: dose 400 mg/kg, route subcutaneous; conditions: read-out: Drug uptake
[17] = Ratio of drug level in thymus to plasma in female Beagle dog at 200 mg/kg, sc after 3 months; format: ADME, organism-based, Canis lupus familiaris; parameters: dose 200 mg/kg, route subcutaneous
[18] = Tmax in female dog at 400 mg administered intramuscularly after 85 days; conditions: in vivo, im
[19] = Plasma concentration in male Beagle dog at 400 mg/kg, sc after 3 months; format: ADME, organism-based, Canis lupus familiaris; parameters: dose 400 mg/kg, route subcutaneous
[20] = Drug level in Beagle dog lymph node popliteal at 5 mg/kg, sc after 6 months; format: ADME, organism-based, Canis lupus familiaris; parameters: dose 5 mg/kg, route subcutaneous; conditions: read-out: Drug uptake
[21] = Cmax in female dog at 200 mg, sc after 29 days; conditions: in vivo
[22] = Drug level in Beagle dog lymph node axillar at 5 mg/kg, sc after 3 months; format: ADME, organism-based, Canis lupus familiaris; parameters: dose 5 mg/kg, route subcutaneous; conditions: axillary lymph node, read-out: Drug uptake
[23] = Ratio of drug level in spleen to plasma in male Beagle dog at 200 mg/kg, sc after 3 months; format: ADME, organism-based, Canis lupus familiaris; parameters: dose 200 mg/kg, route subcutaneous
[24] = Ratio of drug level in thymus to plasma in male Beagle dog at 400 mg/kg administered intramuscularly after 3 months; format: ADME, organism-based, Canis lupus familiaris; parameters: dose 400 mg/kg, route intramuscular; conditions: im
[25] = Drug level in male Beagle dog spleen at 200 mg/kg, sc after 3 months; format: ADME, organism-based, Canis lupus familiaris; parameters: dose 200 mg/kg, route subcutaneous; conditions: read-out: Drug uptake
[26] = Ratio of drug level in thymus to plasma in male Beagle dog at 200 mg/kg administered intramuscularly after 1 month; format: ADME, organism-based, Canis lupus familiaris; parameters: dose 200 mg/kg, route intramuscular; conditions: im
[27] = Drug level in Beagle dog lymph node popliteal at 5 mg/kg administered intramuscularly after 6 months; format: ADME, organism-based, Canis lupus familiaris; parameters: dose 5 mg/kg, route intramuscular; conditions: im, read-out: Drug uptake
[28] = Drug level in female Beagle dog spleen at 400 mg/kg, sc after 3 months; format: ADME, organism-based, Canis lupus familiaris; parameters: dose 400 mg/kg, route subcutaneous; conditions: read-out: Drug uptake
[29] = Drug level in Beagle dog skin at injected site at 5 mg/kg, sc after 6 months; format: ADME, organism-based, Canis lupus familiaris, Zone of skin; parameters: dose 5 mg/kg, route subcutaneous; conditions: read-out: Drug uptake
[30] = Ratio of drug level in spleen to plasma in male Beagle dog at 200 mg/kg administered intramuscularly after 3 months; format: ADME, organism-based, Canis lupus familiaris; parameters: dose 200 mg/kg, route intramuscular; conditions: im
Plasma = test: (§1) Plasma concentration in Beagle dog at 5 mg/kg administered intramuscularly after 6 months; format: ADME, organism-based, Canis lupus familiaris; parameters: dose 5 mg/kg, route intramuscular; conditions: in vivo, im, 4383 h, BLD = below limit of detection
[31] = as §1; format: ADME, organism-based, Canis lupus familiaris; parameters: dose 5 mg/kg, route intramuscular; conditions: im
[32] = Drug level in Beagle dog liver at 5 mg/kg, sc after 6 months; format: ADME, organism-based, Canis lupus familiaris; parameters: dose 5 mg/kg, route subcutaneous; conditions: read-out: Drug uptake
[33] = Ratio of drug level in thymus to plasma in male Beagle dog at 200 mg/kg, sc after 3 months; format: ADME, organism-based, Canis lupus familiaris; parameters: dose 200 mg/kg, route subcutaneous
[34] = Tmax in male dog at 400 mg administered intramuscularly after 85 days; conditions: in vivo, im
[35] = Drug level in Beagle dog lymph node mandibular at 5 mg/kg administered intramuscularly after 6 months; format: ADME, organism-based, Canis lupus familiaris; parameters: dose 5 mg/kg, route intramuscular; conditions: im, read-out: Drug uptake
[36] = Drug level in Beagle dog lymph node axillar at 5 mg/kg administered intramuscularly after 3 months; format: ADME, organism-based, Canis lupus familiaris; parameters: dose 5 mg/kg, route intramuscular; conditions: axillary lymph node, im, read-out: Drug uptake
[37] = Ratio of drug level in spleen to plasma in male Beagle dog at 200 mg/kg, sc after 1 month; format: ADME, organism-based, Canis lupus familiaris; parameters: dose 200 mg/kg, route subcutaneous
[38] = Drug level in Beagle dog muscle at injected site at 5 mg/kg, sc after 3 months; format: ADME, organism-based, Canis lupus familiaris, Muscle tissue; parameters: dose 5 mg/kg, route subcutaneous; conditions: read-out: Drug uptake
Canis familiaris [39] = test: Toxicity in Beagle dog assessed as untoward effects at 20 mg/kg, sc; format: organism-based, Canis lupus familiaris; parameters: dose 20 mg/kg, route subcutaneous; conditions: in vivo
[40] = AUC (0 to infinity) in Sprague-Dawley rat at 1.25 mg/kg, iv after 2 days; format: ADME, organism-based; parameters: time infinity, dose 1.25 mg/kg, route intravenous; conditions: plasma
[41] = Ratio of drug level in thymus to plasma in female Beagle dog at 400 mg/kg administered intramuscularly after 1 month; format: ADME, organism-based, Canis lupus familiaris; parameters: dose 400 mg/kg, route intramuscular; conditions: im
[42] = Drug level in Beagle dog lymph node axillar at 5 mg/kg, sc after 6 months; format: ADME, organism-based, Canis lupus familiaris; parameters: dose 5 mg/kg, route subcutaneous; conditions: axillary lymph node, read-out: Drug uptake
[43] = Ratio of drug level in thymus to plasma in female Beagle dog at 400 mg/kg, sc after 1 month; format: ADME, organism-based, Canis lupus familiaris; parameters: dose 400 mg/kg, route subcutaneous
[44] = Drug level in Beagle dog lymph node mandibular at 5 mg/kg, sc after 3 months; format: ADME, organism-based, Canis lupus familiaris; parameters: dose 5 mg/kg, route subcutaneous; conditions: read-out: Drug uptake
[45] = Plasma concentration in female Beagle dog at 200 mg/kg, sc after 1 month; format: ADME, organism-based, Canis lupus familiaris; parameters: dose 200 mg/kg, route subcutaneous; conditions: read-out: Drug uptake
[46] = Cmax in Beagle dog at 5 mg/kg administered intramuscularly after 176 days; format: ADME, organism-based, Canis lupus familiaris; parameters: dose 5 mg/kg, route intramuscular; conditions: in vivo, im
[47] = AUC (0 to last) in male dog at 400 mg administered intramuscularly after 29 days; conditions: plasma, im
Canis familiaris [48] = test: Toxicity in Beagle dog assessed as irritation at 20 mg/kg, sc after 3 months; format: organism-based, Canis lupus familiaris; parameters: dose 20 mg/kg, route subcutaneous; conditions: in vivo, 2191.5 h
[49] = Drug level in female Beagle dog thymus at 400 mg/kg, sc after 1 month; format: ADME, organism-based, Canis lupus familiaris; parameters: dose 400 mg/kg, route subcutaneous; conditions: read-out: Drug uptake
[50] = Ratio of drug level in spleen to plasma in male Beagle dog at 400 mg/kg, sc after 1 month; format: ADME, organism-based, Canis lupus familiaris; parameters: dose 400 mg/kg, route subcutaneous
[51] = Ratio of drug level in thymus to plasma in male Beagle dog at 400 mg/kg, sc after 3 months; format: ADME, organism-based, Canis lupus familiaris; parameters: dose 400 mg/kg, route subcutaneous
[52] = Drug level in Beagle dog skin at non-injected site at 5 mg/kg administered intramuscularly after 6 months; format: ADME, organism-based, Canis lupus familiaris, Zone of skin; parameters: dose 5 mg/kg, route intramuscular; conditions: im, read-out: Drug uptake
[53] = Plasma concentration in Beagle dog at 5 mg/kg, sc after 3 months; format: ADME, organism-based, Canis lupus familiaris; parameters: dose 5 mg/kg, route subcutaneous
[54] = AUC (0 to last) in Beagle dog at 5 mg/kg administered intramuscularly after 184 days; format: ADME, organism-based, Canis lupus familiaris; parameters: dose 5 mg/kg, route intramuscular, time 0 - last; conditions: plasma, im
[55] = AUC (0 to last) in Beagle dog at 5 mg/kg administered intramuscularly after 176 days; format: ADME, organism-based, Canis lupus familiaris; parameters: dose 5 mg/kg, route intramuscular, time 0 - last; conditions: plasma, im

## Cc1cc(/C=C/C#N)cc(C)c1Nc1ccnc(Nc2ccc(C#N)cc2)n1 [RILPIVIRINE]
[1]
  concentration at 4383 h: 10.7 ng/g
[2]
  Kp at 730.5 h: 3.9
[3]
  Kp at 4383 h: 5.5
[4]
  concentration at 2191.5 h: 63.5 ng/g
[5]
  Kp at 2191.5 h: 8.2
[6]
  concentration at 2191.5 h: 49.5 ng/g
[7]
  Kp at 4383 h: 7.7
[8]
  concentration at 2191.5 h: 26.8 ng/g
[9]
  concentration at 2191.5 h: 36 ng/mL
Canis familiaris [10]
  Activity: Non-toxic
Canis familiaris [11]
  Activity: Non-toxic
[12]
  concentration at 730.5 h: 64.9 ng/g
[13]
  concentration at 730.5 h: 311 ng/g
[14]
  concentration at 2191.5 h: 105 ng/g
[15]
  concentration at 730.5 h: 347 ng/g
[16]
  concentration at 730.5 h: 227 ng/g
[17]
  Kp at 2191.5 h: 4
[18]
  Tmax: 16 h
[19]
  concentration at 2191.5 h: 48.4 ng/mL
[20]
  concentration at 4383 h: 5.5 ng/g
[21]
  Cmax: 185 ng/mL
[22]
  concentration at 2191.5 h: 22.1 ng/g
[23]
  Kp at 2191.5 h: 2.5
[24]
  Kp at 2191.5 h: 3.9
[25]
  concentration at 2191.5 h: 36.2 ng/g
[26]
  Kp at 730.5 h: 3.2
[27]
  concentration at 4383 h: 30.7 ng/g
[28]
  concentration at 2191.5 h: 67.5 ng/g
[29]
  concentration at 4383 h: 143000 ng/g
[30]
  Kp at 2191.5 h: 2.7
Plasma
  Cp: BLD
[31]
  concentration at 4383 h: < 1 ng/mL
[32]
  concentration at 4383 h: 31.1 ng/g
[33]
  Kp at 2191.5 h: 5.9
[34]
  Tmax: 17 h
[35]
  concentration at 4383 h: 6.9 ng/g
[36]
  concentration at 2191.5 h: 25.5 ng/g
[37]
  Kp at 730.5 h: 2
[38]
  concentration at 2191.5 h: 467 ng/g
Canis familiaris [39]
  Activity: Non-toxic
[40]
  AUC(0-inf): 1230 ng·h/mL
[41]
  Kp at 730.5 h: 6
[42]
  concentration at 4383 h: 8.6 ng/g
[43]
  Kp at 730.5 h: 5
[44]
  concentration at 2191.5 h: 13.1 ng/g
[45]
  concentration at 730.5 h: 71.8 ng/g
[46]
  Cmax: 619 ng/mL
[47]
  AUC(0-t) at 696 h: 188000 ng·h/mL
Canis familiaris [48]
  Activity: Non-toxic
[49]
  concentration at 730.5 h: 1200 ng/g
[50]
  Kp at 730.5 h: 2.9
[51]
  Kp at 2191.5 h: 3.5
[52]
  concentration at 4383 h: 6.7 ng/g
[53]
  concentration at 2191.5 h: 3.3 ng/mL
[54]
  AUC(0-t) at 4416 h: 39400 ng·h/mL
[55]
  AUC(0-t) at 4224 h: 23200 ng·h/mL
